pIC50: −log10 of the molar value.
Target: Endothelial lipase (EL) (Homo sapiens (Human), UniProt Q9Y5X9)
Assay: Endothelial lipase (EL) activity assay with fluorescent substrate A10070 in DMPG vesicles
Assay type: biochemical
Description: Endothelial lipase activity was measured using a fluorescent substrate, A10070, (Invitrogen, CA) doped into an artificial vesicle containing DMPG (Avanti Polar Lipids) as the excipient. Vesicles were prepared by combining 285 μL of 1 mM DMPG in a 1:1 mixture of MeOH and CHCl3 with 15 μL of 1 mM A10070 in a 1:1 mixture of MeOH and CHCl3. The mixture was dried under nitrogen and resuspended in 150 μL of 50 mM HEPES pH 8.0 buffer containing 100 mM NaCl and 0.2 mM EDTA. The sample was allowed to sit at rt for 15 min and then was sonicated 3×4 mins on ice with a Branson Sonicator using duty cycle 1. This preparation provides vesicles with a mole fraction of 0.05 for the FRET substrate.
The enzymatic assay was measured using white, opaque 96-well half area plates. Each well contained 60 μL of assay buffer (50 mM HEPES pH 8.0, 50 mM NaCl and 1 mM CaCl2) and 2 ul of a DMSO solution containing compound of interest. Conditioned media obtained from HT-1080 cells, which were transformed by RAGE technology (Athersys) to overexpress endogenous EL, was added and the reaction was allowed to incubate for 20 min at 37° C. with gentle agitation. The reaction was started by the addition of 20 μL of a 1:4 dilution of vesicles. The final total reaction volume was 100 μL. The reaction rates were measured on a Gemini plate reader with an excitation wavelength of 488 nm and an emission of 530 nm. Readings were taken every 20 seconds for 10 min with agitation between each reading. The slope of the linear portion of the readout was used to calculate the rate of the reaction.

Sequence of Endothelial lipase (EL) (Q9Y5X9 21-500): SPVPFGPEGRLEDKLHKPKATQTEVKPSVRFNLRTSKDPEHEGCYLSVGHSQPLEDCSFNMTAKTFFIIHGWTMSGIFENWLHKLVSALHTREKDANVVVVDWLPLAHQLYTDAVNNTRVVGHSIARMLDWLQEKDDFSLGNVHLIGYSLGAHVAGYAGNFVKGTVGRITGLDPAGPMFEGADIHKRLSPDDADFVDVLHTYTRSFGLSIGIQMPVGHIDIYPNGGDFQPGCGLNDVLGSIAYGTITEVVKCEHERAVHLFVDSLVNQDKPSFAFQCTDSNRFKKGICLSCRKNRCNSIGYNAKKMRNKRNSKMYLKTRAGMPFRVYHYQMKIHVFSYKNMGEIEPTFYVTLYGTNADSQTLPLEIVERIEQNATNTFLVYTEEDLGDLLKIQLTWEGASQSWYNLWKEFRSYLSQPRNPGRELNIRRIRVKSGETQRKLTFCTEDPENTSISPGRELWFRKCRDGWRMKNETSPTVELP

Row | Structure (SMILES) | pIC50
1 | CC(C)(C)OC(=O)CNc1nnc(C(=O)c2nc3ccc(-c4ccccc4)cc3s2)o1 [Example 67, tert-butyl 2-((5-(6-phenylbenzo[d]thiazole-2-carbonyl)-1,3,4-oxadiazol-2-yl)amino)acetate] | 6.89
2 | COc1ccc(CCNc2nnc(C(=O)c3nc4ccc(-c5ccc(F)cc5)cc4s3)o2)cc1 [Example 62, (6-(4-fluorophenyl)benzo[d]thiazol-2-yl)(5-((4-methoxyphenethyl)amino)-1,3,4-oxadiazol-2-yl)methanone] | 6.62
3 | CC1(Cc2nnc(C(=O)c3nc4ccc(-c5ccccc5)cc4s3)o2)NC(=O)NC1=O (stereo not shown) [Example 33, 5-methyl-5-((5-(6-phenylbenzo[d]thiazole-2-carbonyl)-1,3,4-oxadiazol-2-yl)methyl)-imidazol-idine-2,4-dione] | 7.68
4 | CC(C)(C)CN1CC(c2nnc(C(=O)c3nc4ccc(-c5ccccc5)cc4s3)o2)C1 [Example 42] | 7.70
5 | CN(Cc1nnc(C(=O)c2nc3ccc(-c4ccccc4)cc3s2)o1)S(N)(=O)=O [Example 27, N-methyl-N-((5-((6-phenyl-1,3-benzothiazol-2-yl)carbonyl)-1,3,4-oxadiazol-2-yl)methyl)sulfamide] | 7.64
6 | O=C(c1nnc(N(Cc2nnc(C3CC3)o2)[C@H]2CCNC2=O)o1)c1nc2ccc(-c3ccccc3)cc2s1 [Example 85, (S)-3-(((5-Cyclopropyl-1,3,4-oxadiazol-2-yl)methyl)(5-(6-phenylbenzo[d]thiazole-2-carbonyl)-1,3,4-oxadiazol-2-yl)amino)pyrrolidin-2-one] | 7.46

The next compounds have a higher pIC50 than those just listed; values first:

Row | pIC50 | Structure (SMILES)
7 | > 8.00 | NS(=O)(=O)c1ccc(-c2ccc3nc(C(=O)c4nnc(N[C@H]5CCNC5=O)o4)sc3c2)cc1 [Example 83, (S)-4-(2-(5-((2-oxopyrrolidin-3-yl)amino)-1,3,4-oxadiazole-2-carbonyl)benzo[d]thiazol-6-yl)benzenesulfonamide]
8 | > 8.00 | O=C(c1nnc(C2CCN(Cc3ccc(OC(F)(F)F)cc3)CC2)o1)c1nc2ccc(-c3ccccc3)cc2s1 [Example 23, (6-Phenylbenzo[d]thiazol-2-yl)(5-(1-(4-(trifluoromethoxy)benzyl)piperidin-4-yl)-1,3,4-oxadiazol-2-yl)methanone]
9 | > 8.00 | O=C(c1nnc(N(CC(F)(F)F)[C@H]2CCNC2=O)o1)c1nc2ccc(-c3ccccc3)cc2s1 [Example 84, (S)-3-((5-(6-Phenylbenzo[d]thiazole-2-carbonyl)-1,3,4-oxadiazol-2-yl)(2,2,2-trifluoroethyl)amino)pyrrolidin-2-one]
10 | > 8.00 | O=C(c1nnc(C2CCN(Cc3ccc(F)cc3)CC2)o1)c1nc2ccc(-c3ccccc3)cc2s1 [Example 17, (5-(1-(4-fluorobenzyl)piperidin-4-yl)-1,3,4-oxadiazol-2-yl)(6-phenylbenzo[d]thiazol-2-yl)methanone]
11 | > 8.00 | O=C(Cc1nnc(C(=O)c2nc3ccc(-c4ccccc4)cc3s2)o1)NC1CC1 [Example 50, N-Cyclopropyl-2-(5-(6-phenylbenzo[d]thiazole-2-carbonyl)-1,3,4-oxadiazol-2-yl)acetamide]
12 | 7.96 | CC1(Cc2nnc(C(=O)c3nc4ccc(-c5ccccc5)cc4s3)o2)NC(=O)N(CC(F)(F)F)C1=O (stereo not shown) [Example 38, 5-methyl-5-((5-(6-phenylbenzo[d]thiazole-2-carbonyl)-1,3,4-oxadiazol-2-yl)methyl)-3-(2,2,2-trifluoro-ethyl)imidazol-idine-2,4-dione]
13 | > 8.00 | CC1(Cc2nnc(C(=O)c3nc4ccc(-c5ccccc5)cc4s3)o2)NC(=O)NC1=O (stereo not shown) [Example 32, 5-methyl-5-((5-(6-phenylbenzo[d]thiazole-2-carbonyl)-1,3,4-oxadiazol-2-yl)methyl)-imidazol-idine-2,4-dione]

Reference: US9169240B2, “Ketone linked benzothiazole inhibitors of endothelial lipase” (BRISTOL-MYERS SQUIBB COMPANY, priority 2012, dated 2015)
